Laboratory results taken from ChEMBL document CHEMBL1201862, “PubChem BioAssay data set” (2004).
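Each compound was tested at five concentrations against cells in 96-well plates for 48 hours. GI50 = concentration required for 50% inhibition of growth.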 Activity calls are given as the source filed them. Rule as the data show it: active = GI50 up to about 1.1 µM and inactive = higher.

How the values were obtained:
Assay in all cases: growth of human tumour cells (NCI), 48 h
HCT-15 = test system: HCT-15
HCC 2998 = test system: HCC 2998
RPMI-8226 = test system: RPMI-8226
UACC-62 = test system: UACC-62
HOP-92 = test system: HOP-92
HT-29 = test system: HT-29
NCI-H460 = test system: NCI-H460
SK-OV-3 = test system: SK-OV-3
U-251 = test system: U-251
SK-MEL-2 = test system: SK-MEL-2
CCRF-CEM = test system: CCRF-CEM
NCI-H226 = test system: NCI-H226
UO-31 = test system: UO-31
ACHN = test system: ACHN
HL-60 = test system: HL-60
COLO 205 = test system: COLO 205
A549 = test system: A549
SNB-19 = test system: SNB-19
SF-295 = test system: SF-295
HCT-116 = test system: HCT-116

Structure (SMILES)	GI50 (HCT-15) [µM]	GI50 (HCC 2998)	GI50 (RPMI-8226)	GI50 (UACC-62)	GI50 (HOP-92)	GI50 (HT-29)	GI50 (NCI-H460)	GI50 (SK-OV-3)	GI50 (U-251)	GI50 (SK-MEL-2)	GI50 (CCRF-CEM)	GI50 (NCI-H226)	GI50 (UO-31)	GI50 (ACHN)	GI50 (HL-60)	GI50 (COLO 205)	GI50 (A549)	GI50 (SNB-19)	GI50 (SF-295)	GI50 (HCT-116)
O=C(O)CCc1cccc2c1oc1c(CCC(=O)O)cccc12	> 100	> 100 µM (inactive)	> 100 µM (inactive)	> 100 µM (inactive)	> 100 µM (inactive)	> 100 µM (inactive)	> 100 µM (inactive)	> 100 µM (inactive)	> 100 µM (inactive)	> 100 µM (inactive)	> 100 µM (inactive)	> 100 µM (inactive)	> 100 µM (inactive)	> 100 µM (inactive)	> 100 µM (inactive)	> 100 µM (inactive)	> 100 µM (inactive)	> 100 µM (inactive)	> 100 µM (inactive)	> 100 µM (inactive)
O=C1c2ccccc2CC1C1(O)C(=O)Nc2c(Cl)cc(Cl)cc21 (stereo unspecified)	42.5	> 100 µM (inactive)	20.8 µM (inactive)		53.3 µM (inactive)	67.8 µM (inactive)	99.8 µM (inactive)	> 100 µM (inactive)	54.8 µM (inactive)	97.5 µM (inactive)	26.6 µM (inactive)	44.2 µM (inactive)	49.8 µM (inactive)	64 µM (inactive)	35.9 µM (inactive)	75.2 µM (inactive)	47.9 µM (inactive)	37.1 µM (inactive)	47.9 µM (inactive)	
NC(=O)c1csc(C2OC(CO)C(O)C2O)n1 (stereo unspecified)	4.14	467 µM (inactive)	150 µM (inactive)	42.6 µM (inactive)	115 µM (inactive)	40.3 µM (inactive)	225 µM (inactive)	61.8 µM (inactive)	8.39 µM (inactive)	2340 µM (inactive)	7.8 µM (inactive)	723 µM (inactive)	53.2 µM (inactive)	44.6 µM (inactive)	8.95 µM (inactive)	7.45 µM (inactive)	102 µM (inactive)	38.3 µM (inactive)		22.6 µM (inactive)
CC1OC(O)CC(N(C)C)C1O.CC1OC(O)CCC1O.CCC1CC(O)c2c(O)c3c(c(O)c2C1O)C(=O)c1cccc(O)c1C3=O (stereo unspecified)	0.0381	0.0197 µM (active)	0.0208 µM (active)	0.0197 µM (active)	0.01 µM (active)	0.0126 µM (active)	0.00486 µM (active)	0.033 µM (active)	0.0211 µM (active)	0.0212 µM (active)	0.0223 µM (active)	0.0168 µM (active)	0.0114 µM (active)	0.0159 µM (active)	0.0305 µM (active)	0.0209 µM (active)	0.0313 µM (active)	0.0301 µM (active)	0.0323 µM (active)	0.00771 µM (active)
CC(=O)c1ccc(NC(=O)C(=O)C(C#N)CC(C)(C)C=O)cc1 (stereo unspecified)	> 100	> 100 µM (inactive)	> 100 µM (inactive)	> 100 µM (inactive)	68.4 µM (inactive)	> 100 µM (inactive)	> 100 µM (inactive)	> 100 µM (inactive)	> 100 µM (inactive)	> 100 µM (inactive)	> 100 µM (inactive)	> 100 µM (inactive)	> 100 µM (inactive)	> 100 µM (inactive)	> 100 µM (inactive)	> 100 µM (inactive)	> 100 µM (inactive)	> 100 µM (inactive)	> 100 µM (inactive)	> 100 µM (inactive)
O=C(CCc1nnc(S)[nH]1)Nc1cccc(C(F)(F)F)c1	> 100	> 100 µM (inactive)	> 100 µM (inactive)	> 100 µM (inactive)	> 100 µM (inactive)	> 100 µM (inactive)	> 100 µM (inactive)	> 100 µM (inactive)	> 100 µM (inactive)	> 100 µM (inactive)	> 100 µM (inactive)	> 100 µM (inactive)	> 100 µM (inactive)	> 100 µM (inactive)	> 100 µM (inactive)	80 µM (inactive)	> 100 µM (inactive)	> 100 µM (inactive)	> 100 µM (inactive)	> 100 µM (inactive)
CC[C@H](CO)Nc1nc(NCc2ccccc2)c2ncn(C(C)C)c2n1 [SELICICLIB]	19.3	32.2 µM (inactive)	24.2 µM (inactive)	8.07 µM (inactive)	50.9 µM (inactive)	20 µM (inactive)	27.9 µM (inactive)	86.3 µM (inactive)	53.8 µM (inactive)	17.5 µM (inactive)	> 100 µM (inactive)	19.2 µM (inactive)	13.6 µM (inactive)	12.8 µM (inactive)	21.7 µM (inactive)	11.6 µM (inactive)	13.6 µM (inactive)		25.5 µM (inactive)	5.09 µM (inactive)
